US20100298141A1, “SUBSTITUTED PYRIDINE N-OXIDE HERBICIDES” (E. I. DU PONT DE NEMOURS AND COMPANY, priority 2007, published 2010)

Columns and labels:
[1] = test system: crabgrass; test: Test A pre-/postemergence greenhouse test; type: in vivo, Digitaria sanguinalis; settings: for Crabgrass, Large plant response rating: 0 to 100 scale
In short: (§1)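 Untreated controls served as the reference for visual injury ratings taken about ten days after spraying. The non-phytotoxic solvent/surfactant formulation was applied preemergence to seeded loam and sand and postemergence to plants two to ten cm high.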

[2] = test system: giant foxtail; test: Test A pre-/postemergence greenhouse test; type: in vivo, Setaria faberi; settings: for Foxtail, Giant plant response rating: 0 to 100 scale
In short: as §1

[3] = test system: morningglory; test: Test A pre-/postemergence greenhouse test; type: in vivo, Ipomoea spp.; settings: for Morningglory plant response rating: 0 to 100 scale
In short: as §1

[4] = test system: wheat; test: Test A pre-/postemergence greenhouse test; type: in vivo, Triticum aestivum; settings: for Wheat plant response rating: 0 to 100 scale
In short: as §1

[5] = test system: corn; test: Test A pre-/postemergence greenhouse test; type: in vivo, Zea mays; settings: for Corn plant response rating: 0 to 100 scale
In short: as §1

[6] = test system: Italian ryegrass; test: Test C pre-/postemergence test; type: in vivo, Lolium multiflorum
In short: (§2)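 Test chemicals were formulated with surfactant in a non-phytotoxic solvent and sprayed both on freshly planted seeds (preemergence) and on 1- to 4-leaf plants of 2–18 cm (postemergence). Flooded-paddy pots received compound directly into 3 cm of standing water, maintained for the test.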

[7] = test system: wheat; test: Test C pre-/postemergence test; type: in vivo, Triticum aestivum; settings: for Wheat plant response rating: preemergence, scale 0 (no effect) to 100 (complete control)
In short: as §2

[8] = test system: catchweed bedstraw; test: Test C pre-/postemergence test; type: in vivo, Galium aparine
In short: as §2

[9] = test system: bermudagrass; test: Test C pre-/postemergence test; type: in vivo, Cynodon dactylon
In short: as §2

[10] = test system: Goosegrass; test: Test C pre-/postemergence test; type: in vivo, Eleusin indica
In short: as §2

[11] = test system: morningglory; test: Test C pre-/postemergence test; type: in vivo, Ipomoea coccinea
In short: as §2

[12] = test system: yellow nutsedge; test: Test C pre-/postemergence test; type: in vivo, Cyperus esculentus
In short: as §2

[13] = test system: pigweed; test: Test C pre-/postemergence test; type: in vivo, Amaranthus retroflexus
In short: as §2

[14] = test system: soybean; test: Test C pre-/postemergence test; type: in vivo, Glycine max
In short: as §2

[15] = test system: common (oilseed) sunflower; test: Test C pre-/postemergence test; type: in vivo, Helianthus annuus; settings: for Sunflower plant response rating: preemergence, scale 0 (no effect) to 100 (complete control)
In short: as §2

[16] = test system: umbrella sedge; test: Test C flooded paddy test; type: in vivo, Cyperus difformis; settings: Flood
In short: (§3)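 Flooded 3 cm over soil; compound into paddy water; depth kept constant. Greenhouse 13–15 d.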

[17] = test system: barnyardgrass; test: Test C flooded paddy test; type: in vivo, Echinochloa crus-galli; settings: Flood
In short: as §3

[18] = Postemergence, 125 g ai/ha, 0 is no effect, 100 is complete control
[19] = Postemergence, 500 g ai/ha, 0 is no effect, 100 is complete control
[20] = Preemergence, 125 g ai/ha, 0 no effect, 100 complete control
[21] = Preemergence, 500 g ai/ha, 0 to 100 scale where 0 is no effect and 100 is complete control
[22] = 31 g ai/ha, Preemergence, scale 0 to 100
[23] = 62 g ai/ha, preemergence, scale 0 (no effect) to 100 (complete control)
[24] = preemergence, 125 g ai/ha, scale 0 (no effect) to 100 (complete control)
[25] = 31 g ai/ha, scale 0 to 100 (0 no effect, 100 complete control)
[26] = 62 g ai/ha, scale 0 to 100, 0 no effect, 100 complete control, 13 to 15 days
[27] = 125 g ai/ha, scale 0 to 100, 0 no effect, 100 complete control, 13 to 15 days
[28] = 250 g ai/ha, scale 0 to 100 (0 no effect, 100 complete control)

Cn1nc(C(F)(F)F)c(C[S+]([O-])c2cccc[n+]2[O-])c1Cl (centres unmarked) [Compound 8]
50: Corn plant response rating [5, 18] | Ryegrass, Italian plant response rating [6, 23] | Wheat plant response rating ([7]; 125 g ai/ha)
90: Crabgrass, Large plant response rating [1, 19] | Crabgrass, Large plant response rating [1, 20] | Foxtail, Giant plant response rating [2, 19] | Morningglory plant response rating [3, 20] | Plant response rating, Morningglory [3, 21] | Morningglory plant response rating [11, 23] | Plant response rating (0 to 100), Soybean ([14]; Preemergence, 250 g ai/ha)
95: Plant response rating (0 to 100), Ryegrass, Italian ([6]; Preemergence, 250 g ai/ha)
98: Goosegrass plant response rating [10, 22]
0: Ryegrass, Italian plant response rating [6, 22] | Galium plant response rating [8, 22] | Soybean plant response rating [14, 22] | Soybean plant response rating [14, 23] | Plant response rating, Sedge, Umbrella [16, 25] | Plant response rating, Sedge, Umbrella [16, 26] | Plant response rating, Barnyardgrass [17, 25] | Plant response rating, Barnyardgrass [17, 26]
100: Plant response rating, Crabgrass, Large [1, 21] | Foxtail, Giant plant response rating [2, 20] | Plant response rating, Foxtail, Giant [2, 21] | Galium plant response rating [8, 23] | Galium plant response rating [8, 24] | Bermudagrass plant response rating [9, 23] | Plant response rating (0 to 100), Bermudagrass ([9]; Preemergence, 250 g ai/ha) | Bermudagrass plant response rating [9, 24] | Goosegrass plant response rating [10, 23] | Plant response rating (0 to 100), Goosegrass ([10]; Preemergence, 250 g ai/ha) | Goosegrass plant response rating [10, 24] | Plant response rating (0 to 100), Morningglory ([11]; Preemergence, 250 g ai/ha) | Morningglory plant response rating [11, 24] | Plant response rating (0 to 100), Nutsedge, Yellow ([12]; Preemergence, 250 g ai/ha) | Nutsedge, Yellow plant response rating [12, 24] | Pigweed plant response rating [13, 23] | Plant response rating (0 to 100), Pigweed ([13]; Preemergence, 250 g ai/ha) | Pigweed plant response rating [13, 24] | Plant response rating (0 to 100), Sunflower ([15]; Preemergence, 250 g ai/ha) | Plant response rating, Sedge, Umbrella [16, 28]
30: Wheat plant response rating [4, 18] | Wheat plant response rating ([7]; 62 g ai/ha) | Sunflower plant response rating ([15]; 62 g ai/ha)
40: Plant response rating, Barnyardgrass [17, 27]
5: Morningglory plant response rating [11, 22]
70: Morningglory plant response rating [3, 19] | Plant response rating, Wheat [4, 21] | Plant response rating, Corn [5, 21] | Ryegrass, Italian plant response rating [6, 24]
80: Crabgrass, Large plant response rating [1, 18] | Foxtail, Giant plant response rating [2, 18] | Plant response rating (0 to 100), Wheat ([7]; Preemergence, 250 g ai/ha) | Bermudagrass plant response rating [9, 22] | Nutsedge, Yellow plant response rating [12, 23] | Soybean plant response rating [14, 24]
60: Morningglory plant response rating [3, 18] | Wheat plant response rating [4, 19] | Wheat plant response rating [4, 20] | Corn plant response rating [5, 19] | Nutsedge, Yellow plant response rating [12, 22] | Sunflower plant response rating ([15]; 125 g ai/ha)
85: Pigweed plant response rating [13, 22] | Plant response rating, Sedge, Umbrella [16, 27] | Plant response rating, Barnyardgrass [17, 28]
20: Corn plant response rating [5, 20]
